“And” between values parts separate entries of the source, which are not always exact repeats. Equal entries are not always repeated.
Tested on: 874868-142-R-J2-PDC complex spheroids, growth % test/control
Assay: Anticancer human tumor 874868-142-R-J2-PDC patient-derived head and neck squamous carcinoma cell line growth inhibition [CLK]
Conditions: for viability, T/C: stronger effect = lower value
Outline: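 Patient-derived tumor cells grown as complex spheroids with HUVEC endothelial cells and mesenchymal stem cells, treated with drug combinations. Concentrations descend in half-log steps from near clinical Cmax, or from 10 microM if Cmax unknown.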

[1] = curve of first compound, second compound 0.0316 µM
[2] = curve of first compound, second compound 0.1 µM
[3] = curve of first compound, second compound 0.316 µM
[4] = curve of first compound, second compound 1 µM
[5] = curve of first compound, second compound 3.16 µM
[6] = curve of first compound, second compound 10 µM
[7] = second compound 0.0316 µM, first compound 0.000949 µM
[8] = second compound 0.0316 µM, first compound 0.003 µM
[9] = second compound 0.0316 µM, first compound 0.00949 µM
[10] = second compound 0.0316 µM, first compound 0.03 µM
[11] = second compound 0.0316 µM, first compound 0.0949 µM
[12] = second compound 0.0316 µM, first compound 0.3 µM
[13] = second compound 0.1 µM, first compound 0.000949 µM
[14] = second compound 0.1 µM, first compound 0.003 µM
[15] = second compound 0.1 µM, first compound 0.00949 µM
[16] = second compound 0.1 µM, first compound 0.03 µM
[17] = second compound 0.1 µM, first compound 0.0949 µM
[18] = second compound 0.1 µM, first compound 0.3 µM
[19] = second compound 0.316 µM, first compound 0.000949 µM
[20] = second compound 0.316 µM, first compound 0.003 µM
[21] = second compound 0.316 µM, first compound 0.00949 µM
[22] = second compound 0.316 µM, first compound 0.03 µM
[23] = second compound 0.316 µM, first compound 0.0949 µM
[24] = second compound 0.316 µM, first compound 0.3 µM
[25] = second compound 1 µM, first compound 0.000949 µM
[26] = second compound 1 µM, first compound 0.003 µM
[27] = second compound 1 µM, first compound 0.00949 µM
[28] = second compound 1 µM, first compound 0.03 µM
[29] = second compound 1 µM, first compound 0.0949 µM
[30] = second compound 1 µM, first compound 0.3 µM
[31] = second compound 3.16 µM, first compound 0.000949 µM
[32] = second compound 3.16 µM, first compound 0.003 µM
[33] = second compound 3.16 µM, first compound 0.00949 µM
[34] = second compound 3.16 µM, first compound 0.03 µM
[35] = second compound 3.16 µM, first compound 0.0949 µM
[36] = second compound 3.16 µM, first compound 0.3 µM
[37] = second compound 10 µM, first compound 0.000949 µM
[38] = second compound 10 µM, first compound 0.003 µM
[39] = second compound 10 µM, first compound 0.00949 µM
[40] = second compound 10 µM, first compound 0.03 µM
[41] = second compound 10 µM, first compound 0.0949 µM
[42] = second compound 10 µM, first compound 0.3 µM
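Further: spheroids exposed to the compounds for 7 days.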
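Wherever viability, T/C is given: 100% = DMSO vehicle control viability.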

CC(C)CC(NC(=O)C(Cc1ccccc1)NC(=O)c1cnccn1)B(O)O (stereo unspecified) + CNC(=O)c1ccc(Nc2nc(OC3CCCC3)c3c(-c4ccc5nc(C)oc5c4)c[nH]c3n2)c(OC)c1
IC50 [1]: 4.48 nM
IC50 [2]: 4.69 nM
IC50 [3]: 4.24 nM
IC50 [4]: < 0.949 nM
IC50 [5]: < 0.949 nM
IC50 [6]: < 0.949 nM
viability, T/C [7]: 96.8%
viability, T/C [8]: 76.4%
viability, T/C [9]: 0.57%
viability, T/C [10]: 0.3%
viability, T/C [11]: 0.21%
viability, T/C [12]: 0.23%
viability, T/C [13]: 89.5%
viability, T/C [14]: 80.7%
viability, T/C [15]: 1.32%
viability, T/C [16]: 0.44%
viability, T/C [17]: 0.2%
viability, T/C [18]: 4.13%
viability, T/C [19]: 66.8%
viability, T/C [20]: 70.8%
viability, T/C [21]: 6.3%
viability, T/C [22]: 0.22%
viability, T/C [23]: 0.26%
viability, T/C [24]: 5.41%
viability, T/C [25]: 47.7%
viability, T/C [26]: 31.9%
viability, T/C [27]: 0.47%
viability, T/C [28]: 0.24%
viability, T/C [29]: 5.77%
viability, T/C [30]: 17.3%
viability, T/C [31]: 45.3%
viability, T/C [32]: 21.6%
viability, T/C [33]: 0.47%
viability, T/C [34]: 0.19%
viability, T/C [35]: 7.41%
viability, T/C [36]: 10.4%
viability, T/C [37]: 38.6%
viability, T/C [38]: 20%
viability, T/C [39]: 3.06%
viability, T/C [40]: 0.36%
viability, T/C [41]: 3.69%
viability, T/C [42]: 6.49%

CC(=O)O[C@H]1C(=O)[C@@]2(C)[C@H]([C@H](OC(=O)c3ccccc3)[C@]3(O)C[C@H](OC(=O)[C@H](O)[C@@H](NC(=O)c4ccccc4)c4ccccc4)C(C)=C1C3(C)C)[C@]1(OC(C)=O)CO[C@@H]1C[C@@H]2O
viability, T/C (compound 0.0316 µM): 24.8% and 41.2%
viability, T/C (compound 0.1 µM): 22.5% and 38.5%
viability, T/C (compound 0.316 µM): 21.1% and 41.4%
viability, T/C (compound 1 µM): 28.7% and 47.2%
viability, T/C (compound 3.16 µM): 23.2% and 42.7%
viability, T/C (compound 10 µM): 36.4% and 50.2%
IC50 (curve of compound): < 31.6 nM

CC(C)CC(NC(=O)C(Cc1ccccc1)NC(=O)c1cnccn1)B(O)O (stereo unspecified) + CN1CCN(c2cc(C(=O)Nc3cc4cc(-c5cnn(C)c5)ccc4cn3)ccn2)CC1
IC50 [1]: 4.88 nM
IC50 [2]: 4.5 nM
IC50 [3]: < 0.949 nM
IC50 [4]: < 0.949 nM
IC50 [5]: < 0.949 nM
IC50 [6]: < 0.949 nM
viability, T/C [7]: 79.4%
viability, T/C [8]: 91.5%
viability, T/C [9]: 1.41%
viability, T/C [10]: 0.55%
viability, T/C [11]: 0.23%
viability, T/C [12]: 0.27%
viability, T/C [13]: 68.9%
viability, T/C [14]: 83.1%
viability, T/C [15]: 2.27%
viability, T/C [16]: 0.42%
viability, T/C [17]: 0.14%
viability, T/C [18]: 0.34%
viability, T/C [19]: 20.8%
viability, T/C [20]: 14.3%
viability, T/C [21]: 0.46%
viability, T/C [22]: 0.14%
viability, T/C [23]: 0.13%
viability, T/C [24]: 0.15%
viability, T/C [25]: 0.31%
viability, T/C [26]: 0.22%
viability, T/C [27]: 1.17%
viability, T/C [28]: 0.2%
viability, T/C [29]: 0.1%
viability, T/C [30]: 0.14%
viability, T/C [31]: 0.33%
viability, T/C [32]: 0.27%
viability, T/C [33]: 0.28%
viability, T/C [34]: 0.14%
viability, T/C [35]: 0.4%
viability, T/C [36]: 0.25%
viability, T/C [37]: 0.09%
viability, T/C [38]: 3.32%
viability, T/C [39]: 3.67%
viability, T/C [40]: 0.13%
viability, T/C [41]: 0.18%
viability, T/C [42]: 0.22%
